Reference: patent US9987247B2, “Drugs for treating diseases of cervical and/or lumbar vertebrae” (priority 2013, dated 2018)

What was measured:
[1] = tested on: cervical disc herniation / cervical disease; experiment: Treatment of patients with cervical disc herniation / cervical disease with oral benzbromarone (case reports); format: in vivo, human
Excerpt: The clinical effect criteria of the drug of the present application for treating cervical spondylosis can also be evaluated 2 weeks after treatment.

[2] = tested on: lumbar disc herniation; experiment: Treatment of patients with lumbar disc herniation with oral benzbromarone (case reports); format: in vivo, human
[3] = Patient A, 100 mg first day then 50 mg once a day, after five days
[4] = Patient A, 100 mg first day then 50 mg once a day, after two days
[5] = Patient B, 50 mg once a day, after seven days
[6] = Patient C, 12.5 mg once a day, after continuous administration for six days
[7] = Patient H, 100 mg once a day plus sodium bicarbonate, after six days
[8] = Patient L, 100 mg once a day plus sodium bicarbonate, after seven days

CCc1oc2ccccc2c1C(=O)c1cc(Br)c(O)c(Br)c1 [benzbromarone]
symptoms in pain, upper limbs numbness and dizziness ([1]; Patient E, cervical intervertebral disc herniation, about 50 mg once a day, no other treatment, six days later): relieved | pain and dizziness symptoms ([1]; Patient G, cervical disease, about 25 mg once a day, neck massage first three days, eight days later): disappeared | Fenz signs ([1]; Patient G, about 25 mg once a day, eight days later, positive before treatment): negative | dizziness symptoms ([1]; Patient I, about 55 kg, cervical disc herniation, capsules 50 mg twice a day plus sodium bicarbonate tablets 0.5 g three times a day, after three days): reduced significantly | pain and dizziness symptoms ([1]; Patient I, capsules 50 mg twice a day plus sodium bicarbonate, after eight days): disappeared | flexion neck rotation test ([1]; Patient I, capsules 50 mg twice a day plus sodium bicarbonate, after eight days, positive before treatment): negative | recurrence ([1]; Patient I, within the next one months): no recurrence | painful symptoms ([2]; Patient A, about 75 kg, once a day, 100 mg first day then 50 mg, after one day): lessened | pain [2, 3]: basically disappeared | walking [2, 3]: could walk properly | ability to walk [2, 4]: able to walk | painful symptoms [2, 4]: alleviated obviously | recurrence of symptoms ([2]; Patient A, within the next six months): haven't occurred | painful symptoms ([2]; Patient B, about 60 kg, 50 mg once a day, waist massage first two days, after two days): alleviated obviously | ability to walk and work [2, 5]: able to walk and work | pain during severe coughing [2, 5]: no perceptible pain | waist pain [2, 5]: basically disappeared | recurrence ([2]; Patient B, within the next three months): no recurrence | pain ([2]; Patient C, 12.5 mg once a day, waist massage first two days, six days later): significantly lessened | symptoms of pain [2, 6]: disappeared | walking and ability to work [2, 6]: walked properly and was able to work | Straight leg raising test ([2]; Patient C, 12.5 mg once a day, after continuous administration for six days, positive before treatment): negative | recurrence ([2]; Patient C, within the next two months): no recurrence | pain ([2]; Patient D, L4/5 protrusion, 50 mg once a day, no other treatment, three days later): significantly lessened | walking, ability to work, pain ([2]; Patient D, 50 mg once a day, after six days): walked properly and was able to work without pain | Straight leg raising test ([2]; Patient D, 50 mg once a day, after six days, positive before treatment): negative | recurrence ([2]; Patient D, within the next three months): no recurrence | pain ([2]; Patient F, about 25 mg once a day, waist massage first three days, three days later): significantly lessened | walking ([2]; Patient F, about 25 mg once a day, after six days): walked properly | ability to walk ([2]; Patient F, about 25 mg once a day, three days later): able to walk | recurrence ([2]; Patient F, within the next two months): no recurrence | pain ([2]; Patient H, about 62 kg, L3/4 protrusion, 100 mg once a day plus sodium bicarbonate tablets 0.5 g three times a day, two days later): significantly reduced | pain when coughing [2, 7]: no pain was felt | waist pain [2, 7]: basically disappeared | walking and ability to work [2, 7]: could walk normally, and was able to work | Straight leg raising test ([2]; Patient H, 100 mg once a day plus sodium bicarbonate, after six days, positive before treatment): negative | recurrence ([2]; Patient H, within the next three months): No recurrence | pain [2, 8]: basically disappeared | walking and work ability [2, 8]: normal walking, work ability recovery | Bragard test ([2]; Patient L, 100 mg once a day plus sodium bicarbonate, after seven days, positive before treatment): negative | relapse ([2]; Patient L, during the following two months): no relapse
